This is an account of results in patent US11793880B2, “Conjugates of quaternized tubulysin compounds” (Seagen Inc., priority 2015, dated 2023).

Holding throughout (format): cell-based
The subject of one data set is Karpas299, ALCL. The experiment in a line: In vitro assays - tubulysin free drugs, CellTiter-Glo growth inhibition. The conditions noted are these: Homo sapiens, KARPAS-299, 96 h, free drug. How it is done: (§1) In vitro assays. Cells cultured in log-phase growth were seeded for 24 h in 96-well plates containing 150 μL RPMI 1640 supplemented with 20% FBS. Serial dilutions of antibody-drug conjugates in cell culture media were prepared at 4× working concentrations; 50 μL of each dilution was added to the 96-well plates. Following addition of ADC, cells were incubated with test articles for 4 d at 37° C. After 96 h, growth inhibition was assessed by CellTiter-Glo® (Promega, Madison, WI) and luminescence was measured on a plate reader. The IC50 value, determined in triplicate, is defined here as the concentration that results in a 50% reduction in cell growth relative to untreated controls.
(§2) In vitro assays—tubulysin free drugs. Cells were treated for 96 hours with tubulysin ether analogs (40-42) or tubulysin M (7), then assessed for viability as described in the methods.
(§3) The tubulysin ester analogs (133-137) and unsaturated ether analogs (176-179) were tested in vitro for potency relative to tubulysin M (7), following a 96 hour exposure. As shown by IC50 values (nM) of Table 2, Tubulysin esters 133-136 performed comparably to tubulysin M, with similar potencies across of the cell lines.
(Cellular ATP, detected with luciferase, serves as a proxy for viable cell number.)

The test system of the next data set is L428, MDR + HL. Described as above. The conditions noted are these: Homo sapiens, L-428, 96 h, free drug. How it is done:
as §1, §2, §3

A further data set concerns HL60, AML. The description is as above. The note with it: Homo sapiens, HL-60, 96 h. On the procedure: as §1, §2, §3
(§4) A series of analogues of the ethyl ether tubulysin compound TubOEt (41) were synthesized on solid phase lanterns that maintain the ethyl ether substitution, while either varying the residue at the Ile position (203-215) or the Mep position (216-221). Following cleavage from the solid phase, the analogues were obtained in >85% purity and tested without further purification. The compounds were tested in vitro for potency relative to a sample of TubOEt synthesized in parallel on a lantern (41-lantern), following a 96 hour exposure, with IC5O values expressed in nM (Table 3). While in many cases an attenuation in activity was observed relative to 41-lantern, some well-tolerated substitutions were found. […] While this stereochemical preference is not observed when Ile is replaced with O-methyl threonine (207) or O-methyl allothreonine (206), bulkier substituents led to a greater differentiation. […] Replacement of the Mep residue was generally less-well tolerated.

Another data set deals with HL60/RV, MDR + AML. The data set is described as above. The conditions noted are these: Homo sapiens, HL-60, 96 h. On the procedure:
as §1, §2, §3, §4

For the next data set, the system named is L540cy, HL. Described as above. The note with it: L540cy, 96 h. On the procedure: as §1, §2, §3, §4
Data set [1] concerns Karpas299, L540cy, L428, HL60, HL60/RV cell lines. The experiment in a line: In vitro assays - tubulysin free drugs, statements across the cell line panel. On the procedure: as §1, §2
The ethyl ether and tubulysin M maintained the highest level of potency in the context of MDR+L428 and HL60/RV cell lines.
as §3

In a further data set the test system is HepG2, HCC. Kind of data set: In vitro assays - TubOEt analogues, CellTiter-Glo growth inhibition. The conditions noted are these: Homo sapiens, Table 3, lantern-made analogues >85% purity, 96 hour exposure. On the procedure: as §1, §4
The next data set concerns Ramos, NHL. Described as above. The note with it: Homo sapiens, Table 3, lantern-made analogues >85% purity, 96 hour exposure. How it is done: as §1, §4
Another data set has as its system U266 MM. The description is as above. The note with it: Homo sapiens, U-266; Table 3; lantern-made analogues >85% purity, 96 hour exposure. How it is done:
as §1, §4

In data set [2] the test system is HepG2, L540cy, Ramos, U266, HL60, HL60/RV cell lines. The experiment in a line: In vitro assays - TubOEt analogues, statements across the cell line panel. The conditions noted are these: Table 3 cell lines, 96 hour exposure. How it is done: as §1, §4
Setting [3] is: Table 1 (examples), free drug, 96 hours.
[4] abbreviates: Table 2, free drug, 96 hour exposure.
Where [5] appears, read: Table 3, lantern-made analogues >85% purity, 96 hour exposure.

SMILES strings stand for the structures. Some results are limits rather than exact numbers.

For orientation: IC50 means the concentration needed to halve the response being measured. Regarding `CCO[C@H](C[C@H](C(C)C)N(C)C(=O)[C@@H](NC(=O)[C@H]1CCCCN1C)[C@@H](C)CC)c1nc(C(=O)N[C@@H](Cc2ccccc2)C[C@H](C)C(=O)O)cs1` [Compound 41, (2S,4R)-4-(2-((1R,3R)-3-((2S,3S)—N,3-dimethyl-2-((R)-1-methylpiperidine-2-carboxamido)pentanamido)-1-ethoxy-4-methylpentyl)thiazole-4-carboxamido)-2-methyl-5-phenylpentanoic acid], the IC50 in the data set on Karpas299, ALCL (Table 1 (examples), 96 hours) is 0.05 nM; with L428, MDR + HL (Table 1 (examples), 96 hours), 0.14 nM; in the data set with HL60, AML (setting [3]), 0.05 nM; with HL60/RV, MDR + AML (setting [3]), 5 nM; with L540cy, HL (Table 1 (examples), free drug), 0.05 nM. Further, in data set [1] (Table 1 (examples) cell lines, 96 hours), the “potency on each of the cell lines, in words” value was “trended more potent”.

Turning to `CC[C@H](C)[C@H](NC(=O)[C@H]1CCCCN1C)C(=O)N(C)[C@H](C[C@@H](OC(=O)CC(C)(C)C)c1nc(C(=O)N[C@@H](Cc2ccccc2)C[C@H](C)C(=O)O)cs1)C(C)C` [Compound 137, (2S,4R)-4-(2-((1R,3R)-3-((2S,3S)—N,3-dimethyl-2-((R)-1-methylpiperidine-2-carboxamido)pentanamido)-1-((3,3-dimethylbutanoyl)oxy)-4-methylpentyl)thiazole-4-carboxamido)-2-methyl-5-phenylpentanoic acid], the IC50 in the data set on Karpas299, ALCL (Table 2, 96 hour exposure) is 0.18 nM; in the data set on L428, MDR + HL (Table 2, 96 hour exposure) it was 0.93 nM; in the data set on HL60, AML (setting [4]) it was 0.7 nM; in the data set on HL60/RV, MDR + AML (setting [4]) it was 47 nM; in the data set with L540cy, HL (setting [4]), 0.7 nM. Further, in data set [1] (Table 2 cell lines, 96 hour exposure), the “potency relative to tubulysin M (7), in words” value is on record as “reduced potency”.

Take `CCO[C@H](C[C@H](C(C)C)N(C)C(=O)[C@@H](NC(=O)[C@H]1CCCCN1C)C1CCOCC1)c1nc(C(=O)N[C@@H](Cc2ccccc2)C[C@H](C)C(=O)O)cs1` [Compound 210, (2S,4R)-4-(2-((1R,3R)-1-ethoxy-4-methyl-3-((S)—N-methyl-2-((R)-1-methylpiperidine-2-carboxamido)-2-(tetrahydro-2H-pyran-4-yl)acetamido)pentyl)thiazole-4-carboxamido)-2-methyl-5-phenylpentanoic acid]: the IC50 in the data set on HL60, AML (setting [5]) is above 1000 nM; in the data set with HL60/RV, MDR + AML (setting [5]), above 1000 nM; in the data set on L540cy, HL (setting [5]), above 1000 nM; in the data set on HepG2, HCC, above 1000 nM; with Ramos, NHL, above 1000 nM; in the data set on U266 MM it was above 1000 nM. Moreover, in [2], the “potency / cytotoxicity of TubOEt analogues, in words” value is “inactive against all cell lines tested”.

For `CCO[C@H](C[C@H](C(C)C)N(C)C(=O)[C@@H](NC(=O)[C@H]1CCCCN1C)[C@@H](C)OC(C)(C)C)c1nc(C(=O)N[C@@H](Cc2ccccc2)C[C@H](C)C(=O)O)cs1` [Compound 215, (2S,4R)-4-(2-((1R,3R)-3-((2S,3R)-3-(tert-butoxy)-N-methyl-2-((R)-1-methylpiperidine-2-carboxamido)butanamido)-1-ethoxy-4-methylpentyl)thiazole-4-carboxamido)-2-methyl-5-phenylpentanoic acid], the IC50 is 1 nM in the data set on HL60, AML (setting [5]); 33 nM with HL60/RV, MDR + AML (setting [5]); 0.2 nM with L540cy, HL (setting [5]); 1 nM with HepG2, HCC; 0.2 nM in the data set on Ramos, NHL; 0.1 nM in the data set with U266 MM. In addition, the “potency / cytotoxicity of TubOEt analogues, in words” value in [2] is reported as “significantly more potent”.

Turning to `CCO[C@H](C[C@H](C(C)C)N(C)C(=O)[C@@H](NC(=O)C1CCC(F)(F)CN1C)[C@@H](C)CC)c1nc(C(=O)N[C@@H](Cc2ccccc2)C[C@H](C)C(=O)O)cs1` (stereo partly drawn) [Compound 216, (2S,4R)-4-(2-((1R,3R)-3-((2S,3S)-2-(5,5-difluoro-1-methylpiperidine-2-carboxamido)-N,3-dimethylpentanamido)-1-ethoxy-4-methylpentyl)thiazole-4-carboxamido)-2-methyl-5-phenylpentanoic acid], the concentration for half-maximal inhibition (IC50) with HL60, AML (setting [5]) is 61 nM; with HL60/RV, MDR + AML (setting [5]) it was above 1000 nM; in the data set with L540cy, HL (setting [5]), 12 nM; with HepG2, HCC, 58 nM; in the data set with Ramos, NHL it was 10 nM; in the data set on U266 MM it was 9 nM. Besides, in data set [2], the “potency / cytotoxicity of TubOEt analogues, in words” value is “decrease in the observed cytotoxicity”.

For `CCO[C@H](C[C@H](C(C)C)N(C)C(=O)[C@@H](NC(=O)C12CC(CCN1C)C2)[C@@H](C)CC)c1nc(C(=O)N[C@@H](Cc2ccccc2)C[C@H](C)C(=O)O)cs1` [Compound 217, (2S,4R)-4-(2-((1R,3R)-3-((2S,3S)—N,3-dimethyl-2-(2-methyl-2-azabicyclo[3.1.1]heptane-1-carboxamido)pentanamido)-1-ethoxy-4-methylpentyl)thiazole-4-carboxamido)-2-methyl-5-phenylpentanoic acid], the IC50 with HL60, AML (setting [5]) came to 4 nM; with HL60/RV, MDR + AML (setting [5]) it was 244 nM; with L540cy, HL (setting [5]) it was 1 nM; with HepG2, HCC it was 2 nM; in the data set with Ramos, NHL, 0.4 nM; in the data set on U266 MM it was 0.4 nM. Moreover, in data set [2], the “potency / cytotoxicity of TubOEt analogues, in words” value is on record as “most potent compounds obtained in this series”.

For the molecule `CCO[C@H](C[C@H](C(C)C)N(C)C(=O)[C@@H](NC(=O)[C@H]1[C@H]2CC[C@H](CC2)N1C)[C@@H](C)CC)c1nc(C(=O)N[C@@H](Cc2ccccc2)C[C@H](C)C(=O)O)cs1` [Compound 218], the IC50 was 24 nM in the data set on HL60, AML (setting [5]); above 1000 nM in the data set with HL60/RV, MDR + AML (setting [5]); 5 nM in the data set on L540cy, HL (setting [5]); 9 nM in the data set with HepG2, HCC; 6 nM in the data set with Ramos, NHL; 7 nM in the data set on U266 MM. In addition, the “potency / cytotoxicity of TubOEt analogues, in words” value in data set [2] was “decrease in the observed cytotoxicity”.

Regarding `CCO[C@H](C[C@H](C(C)C)N(C)C(=O)[C@@H](NC(=O)[C@H]1[C@@H]2CC[C@@H](C2)N1C)[C@@H](C)CC)c1nc(C(=O)N[C@@H](Cc2ccccc2)C[C@H](C)C(=O)O)cs1` [Compound 219, (2S,4R)-4-(2-((1R,3R)-3-((2S,3S)—N,3-dimethyl-2-((1S,3R,4R)-2-methyl-2-azabicyclo[2.2.1]heptane-3-carboxamido)pentanamido)-1-ethoxy-4-methylpentyl)-thiazole-4-carboxamido)-2-methyl-5-phenylpentanoic acid], the IC50 in the data set with HL60, AML (setting [5]) is 25 nM; with HL60/RV, MDR + AML (setting [5]), above 1000 nM; in the data set on L540cy, HL (setting [5]), 6 nM; in the data set with HepG2, HCC it was 19 nM; in the data set on Ramos, NHL, 8 nM; with U266 MM, 8 nM. The “potency / cytotoxicity of TubOEt analogues, in words” value in data set [2] is “decrease in the observed cytotoxicity”.

As for `CCO[C@H](C[C@H](C(C)C)N(C)C(=O)[C@@H](NC(=O)[C@@]1(C)CCCN1C)[C@@H](C)CC)c1nc(C(=O)N[C@@H](Cc2ccccc2)C[C@H](C)C(=O)O)cs1` [Compound 221, (2S,4R)-4-(2-((1R,3R)-3-((2S,3S)-2-((R)-1,2-dimethylpyrrolidine-2-carboxamido)-N,3-dimethylpentanamido)-1-ethoxy-4-methylpentyl)thiazole-4-carboxamido)-2-methyl-5-phenylpentanoic acid], the IC50 with HL60, AML (setting [5]) was found to be 12 nM; with HL60/RV, MDR + AML (setting [5]), 522 nM; in the data set on L540cy, HL (setting [5]), 1 nM; in the data set with HepG2, HCC, 4 nM; in the data set with Ramos, NHL, 1 nM; with U266 MM it was 2 nM. Also, the “potency / cytotoxicity of TubOEt analogues, in words” value in [2] is listed as “most potent compounds obtained in this series”.
